Assay results: PMC12298827, “Subchronic Toxicities of Four Per- and Polyfluoroalkyl Substances (PFASs) by Oral Exposure in Sprague–Dawley Rats” (Toxics, 2025)

Test system: male and female Sprague–Dawley rats
Assay: 90-day subchronic oral gavage toxicity study
Format: in vivo, rat
Set-up: key to NOEL, absolute liver weight increase / LOEL, absolute liver weight increase / NOEL, relative kidney weight increase / LOEL, relative kidney weight increase / NOEL, absolute kidney weight increase / LOEL, absolute kidney weight increase / NOEL, relative liver weight increase / LOEL, relative liver weight increase: NR: no response, no statistically significant dose-dependent changes
Procedure, shortened: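 Rats dosed daily by oral gavage in corn oil (3 mL/kg) for 90 days, five dose levels plus control, n = 10/sex/group, euthanized SD 91. Endpoints: clinical observation, bodyweight, feed intake, FOB/locomotor activity, ophthalmology, terminal hematology, serum chemistry, coagulation, plasma parent PFAS, organ weights, histopathology. Groups vs control by ANOVA/Dunnett's (p<0.05).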

In the case of O=C(O)C(F)(Cl)C(F)(F)F (stereo not shown) [CTFPA, 2-Chloro-2,3,3,3-tetrafluoropropanoic acid], the “Bodyweight (BW) and bodyweight gain” value (90-day, both sexes, all doses) is reported as “None CTPFA related”, the Clinical chemistry (90-day, both sexes, all doses) is reported as “From minimal to mild increases in albumin and the A/G ratio in males at ≥7.5 mg/kg-day and in females at ≥50 mg/kg; only in males—from minimal to mild decreases in globulin at ≥7.5 mg/kg-day; from minimal to mild increases in ALPi at ≥7.5 mg/kg-day, and minimally increased BUN at 30 mg/kg-day” and the Clinical observations (90-day, both sexes, all doses) is reported as “None”. For the same molecule, the Coagulation endpoints (90-day, both sexes, all doses) was “From minimal to mild dose-dependent decreased APTT in males at ≥3.8 mg/kg; no effect in females”, the Feed consumption (90-day, both sexes, all doses) was “Significant non-adverse increases in males at ≥3.8 mg/kg-day; minor effects in females, not considered as CTFPA related” and the Functional observational battery (90-day, both sexes, all doses) was “No changes”. The Gross lesions (90-day, both sexes, all doses) was “None considered as CTFPA related”, the Hematology (90-day, both sexes, all doses) was “From minimal to mild decreases in red cell mass (RBC, HCT, and HGB) and increases in RDW in males at ≥7.5 mg/kg-day; no similar effect in females; from minimal to mild increased MPV in males at ≥3.8 mg/kg-day and in females at ≥50 mg/kg-day” and the Histopathology (90-day, both sexes, all doses) was “The liver of males and females; the heart and nasal turbinates of males”. For the same molecule, the Locomotor activity (90-day, both sexes, all doses) was “No effects”, the Morbidity and mortality (90-day, both sexes, all doses) was “None” and the Ophthalmology (90-day, both sexes, all doses) was “No ocular lesions”. The Organ weight changes (90-day, both sexes, all doses) was “Mean absolute and/or relative liver weight increases in males at ≥3.8 mg/kg-day and in females at ≥25 mg/kg-day ^6; mean thymus weights increased in males at ≥15 mg/kg-day; mean kidney weights increased in females at ≥50 mg/kg-day”, the “BMD10, absolute liver weight increase” value (female) was 13.6 mg/kg-day and the “BMDL, absolute liver weight increase” value (female) was 5.1 mg/kg-day. The “LOEL, absolute kidney weight increase” value (female) was “NR”, the “LOEL, absolute liver weight increase” value (female) was 25 mg/kg-day and the “LOEL, relative kidney weight increase” value (female) was “NR”. For the same molecule, the “LOEL, relative liver weight increase” value (female) was 25 mg/kg-day, the “NOEL, absolute kidney weight increase” value (female) was “NR” and the “NOEL, absolute liver weight increase” value (female) was 12.5 mg/kg-day. The “NOEL, relative kidney weight increase” value (female) was “NR”, the “NOEL, relative liver weight increase” value (female) was 12.5 mg/kg-day and the A/G (female, 1.9 mg/kg-day) was 1.10±0.09 ratio. The ALB (female, 1.9 mg/kg-day) was 4.07 ± 0.31 g/dL, the ALPi (female, 1.9 mg/kg-day) was 49.7±22.7 U/L and the BUN (female, 1.9 mg/kg-day) was 16.4 ± 3.6 mg/dL. For the same molecule, the CHOL (female, 1.9 mg/kg-day) was 94.7 ± 23.9 mg/dL, the GLOB (female, 1.9 mg/kg-day) was 3.69 ± 0.19 g/dL and the GLUC (female, 1.9 mg/kg-day) was 140.7 ± 21.5 mg/dL. It also gave an A/G (female, 3.8 mg/kg-day) of 1.17±0.10 ratio, an ALB (female, 3.8 mg/kg-day) of 4.41 ± 0.33 g/dL and an ALPi (female, 3.8 mg/kg-day) of 56.6±19.8 U/L. The BUN (female, 3.8 mg/kg-day) was 16.5 ± 3.0 mg/dL, the CHOL (female, 3.8 mg/kg-day) was 95.9 ± 14.5 mg/dL and the GLOB (female, 3.8 mg/kg-day) was 3.78 ± 0.20 g/dL. For the same molecule, the GLUC (female, 3.8 mg/kg-day) was 133.0 ± 25.5 mg/dL, the “% BW Gain” value (female, 6.3 mg/kg-day) was 59.29% and the “% Diff, % BW Gain” value (female, 6.3 mg/kg-day) was 12.55%. For the same molecule, the “% Diff, Total BW change” value (female, 6.3 mg/kg-day) was 13.40%, the “% Diff, Total Food Consumed” value (female, 6.3 mg/kg-day) was 8.28% and the APTT (female, 6.3 mg/kg-day) was 17.76 s. For the same molecule, the HCT (female, 6.3 mg/kg-day) was 47.57±2.23%, the HGB (female, 6.3 mg/kg-day) was 15.03 ± 0.80 g/dL and the “Kidney Weight” value (female, 6.3 mg/kg-day) was 1.91 g. For the same molecule, the “Kidney/Body Weight” value (female, 6.3 mg/kg-day) was 0.57%, the “Kidney/Brain Weight” value (female, 6.3 mg/kg-day) was 95.5% and the “Liver Weight” value (female, 6.3 mg/kg-day) was 8.76 g. For the same molecule, the “Liver/Body Weight” value (female, 6.3 mg/kg-day) was 2.59%, the “Liver/Brain Weight” value (female, 6.3 mg/kg-day) was 437% and the MPV (female, 6.3 mg/kg-day) was 7.57 ± 0.49 fL. The PT (female, 6.3 mg/kg-day) was 14.58 s, the “Total BW change” value (female, 6.3 mg/kg-day) was 129.35 g and the “Total Food Consumed” value (female, 6.3 mg/kg-day) was 1671 g. The A/G (female, 7.5 mg/kg-day) was 1.18±0.14 ratio, the ALB (female, 7.5 mg/kg-day) was 4.36 ± 0.42 g/dL and the ALPi (female, 7.5 mg/kg-day) was 54.6±16.8 U/L. The BUN (female, 7.5 mg/kg-day) was 16.4 ± 2.4 mg/dL, the CHOL (female, 7.5 mg/kg-day) was 98.2 ± 26.4 mg/dL and the GLOB (female, 7.5 mg/kg-day) was 3.70 ± 0.28 g/dL. For the same molecule, the GLUC (female, 7.5 mg/kg-day) was 143.6 ± 21.3 mg/dL, the “% BW Gain” value (female, 12.5 mg/kg-day) was 56.17% and the “% Diff, % BW Gain” value (female, 12.5 mg/kg-day) was 6.64%. The “% Diff, Total BW change” value (female, 12.5 mg/kg-day) was 5.12%, the “% Diff, Total Food Consumed” value (female, 12.5 mg/kg-day) was 1.02% and the APTT (female, 12.5 mg/kg-day) was 16.20 s. For the same molecule, the HCT (female, 12.5 mg/kg-day) was 45.99±2.31%, the HGB (female, 12.5 mg/kg-day) was 14.52 ± 0.79 g/dL and the “Kidney Weight” value (female, 12.5 mg/kg-day) was 1.97 g. The “Kidney/Body Weight” value (female, 12.5 mg/kg-day) was 0.60%, the “Kidney/Brain Weight” value (female, 12.5 mg/kg-day) was 93.7% and the “Liver Weight” value (female, 12.5 mg/kg-day) was 8.97 g. The “Liver/Body Weight” value (female, 12.5 mg/kg-day) was 2.71%, the “Liver/Brain Weight” value (female, 12.5 mg/kg-day) was 428% and the MPV (female, 12.5 mg/kg-day) was 8.00 ± 0.97 fL. The PT (female, 12.5 mg/kg-day) was 14.17 s, the “Total BW change” value (female, 12.5 mg/kg-day) was 119.91 g and the “Total Food Consumed” value (female, 12.5 mg/kg-day) was 1559 g. It also gave an A/G (female, 15 mg/kg-day) of 1.19±0.08 ratio, an ALB (female, 15 mg/kg-day) of 4.46 ± 0.44 g/dL and an ALPi (female, 15 mg/kg-day) of 57.7±20.2 U/L. For the same molecule, the BUN (female, 15 mg/kg-day) was 16.3 ± 2.3 mg/dL, the CHOL (female, 15 mg/kg-day) was 96.5 ± 26.2 mg/dL and the GLOB (female, 15 mg/kg-day) was 3.73 ± 0.20 g/dL. The GLUC (female, 15 mg/kg-day) was 154.6 ± 21.6 mg/dL, the “% BW Gain” value (female, 25 mg/kg-day) was 53.36% and the “% Diff, % BW Gain” value (female, 25 mg/kg-day) was 1.29%. For the same molecule, the “% Diff, Total BW change” value (female, 25 mg/kg-day) was 1.52%, the “% Diff, Total Food Consumed” value (female, 25 mg/kg-day) was 2.96% and the APTT (female, 25 mg/kg-day) was 21.82 s. The HCT (female, 25 mg/kg-day) was 46.61±2.96%, the HGB (female, 25 mg/kg-day) was 14.62 ± 1.04 g/dL and the “Kidney Weight” value (female, 25 mg/kg-day) was 1.97 g. For the same molecule, the “Kidney/Body Weight” value (female, 25 mg/kg-day) was 0.60%, the “Kidney/Brain Weight” value (female, 25 mg/kg-day) was 95.0% and the “Liver Weight” value (female, 25 mg/kg-day) was 9.97 g. For the same molecule, the “Liver/Body Weight” value (female, 25 mg/kg-day) was 3.02%, the “Liver/Brain Weight” value (female, 25 mg/kg-day) was 483% and the MPV (female, 25 mg/kg-day) was 7.65 ± 0.50 fL. For the same molecule, the PT (female, 25 mg/kg-day) was 14.34 s, the “Total BW change” value (female, 25 mg/kg-day) was 115.80 g and the “Total Food Consumed” value (female, 25 mg/kg-day) was 1589 g. It also gave an A/G (female, 30 mg/kg-day) of 1.22±0.07 ratio, an ALB (female, 30 mg/kg-day) of 4.62 ± 0.45 g/dL and an ALPi (female, 30 mg/kg-day) of 74.1±17.5 U/L. The BUN (female, 30 mg/kg-day) was 18.3 ± 2.5 mg/dL, the CHOL (female, 30 mg/kg-day) was 101.9 ± 15.8 mg/dL and the GLOB (female, 30 mg/kg-day) was 3.77 ± 0.25 g/dL. For the same molecule, the GLUC (female, 30 mg/kg-day) was 153.4 ± 21.2 mg/dL, the “% BW Gain” value (female, 50 mg/kg-day) was 51.94% and the “% Diff, % BW Gain” value (female, 50 mg/kg-day) was -1.40%. For the same molecule, the “% Diff, Total BW change” value (female, 50 mg/kg-day) was -0.34%, the “% Diff, Total Food Consumed” value (female, 50 mg/kg-day) was 2.22% and the APTT (female, 50 mg/kg-day) was 17.22 s. The HCT (female, 50 mg/kg-day) was 45.75±1.73%, the HGB (female, 50 mg/kg-day) was 14.30 ± 0.57 g/dL and the “Kidney Weight” value (female, 50 mg/kg-day) was 2.07 g. For the same molecule, the “Kidney/Body Weight” value (female, 50 mg/kg-day) was 0.63%, the “Kidney/Brain Weight” value (female, 50 mg/kg-day) was 102% and the “Liver Weight” value (female, 50 mg/kg-day) was 10.49 g. The “Liver/Body Weight” value (female, 50 mg/kg-day) was 3.21%, the “Liver/Brain Weight” value (female, 50 mg/kg-day) was 520% and the MPV (female, 50 mg/kg-day) was 8.10 ± 0.46 fL. For the same molecule, the PT (female, 50 mg/kg-day) was 14.57 s, the “Total BW change” value (female, 50 mg/kg-day) was 113.68 g and the “Total Food Consumed” value (female, 50 mg/kg-day) was 1577 g. The “% BW Gain” value (female, 100 mg/kg-day) was 49.85%, the “% Diff, % BW Gain” value (female, 100 mg/kg-day) was -5.37% and the “% Diff, Total BW change” value (female, 100 mg/kg-day) was -5.90%. For the same molecule, the “% Diff, Total Food Consumed” value (female, 100 mg/kg-day) was 4.68%, the APTT (female, 100 mg/kg-day) was 21.23 s and the HCT (female, 100 mg/kg-day) was 46.76±2.13%. The HGB (female, 100 mg/kg-day) was 14.60 ± 0.66 g/dL, the “Kidney Weight” value (female, 100 mg/kg-day) was 2.05 g and the “Kidney/Body Weight” value (female, 100 mg/kg-day) was 0.65%. The “Kidney/Brain Weight” value (female, 100 mg/kg-day) was 104%.
